The target of assay [1] is T1, human kidney PTH/PTHrP receptor (Homo sapiens, UniProt Q03431, L389Q).
T1 construct: The full-length human kidney PTH/PTHrP receptor cDNA, HKrk, was constructed using the BamHI/PvuII fragment of PCR clone #2 and HK-2; expressed in transfected cells; host or cells: COS-7 cells, transient (DEAE/Dextran), pcDNAI
T1 sequence (Q03431 27-593 L389Q): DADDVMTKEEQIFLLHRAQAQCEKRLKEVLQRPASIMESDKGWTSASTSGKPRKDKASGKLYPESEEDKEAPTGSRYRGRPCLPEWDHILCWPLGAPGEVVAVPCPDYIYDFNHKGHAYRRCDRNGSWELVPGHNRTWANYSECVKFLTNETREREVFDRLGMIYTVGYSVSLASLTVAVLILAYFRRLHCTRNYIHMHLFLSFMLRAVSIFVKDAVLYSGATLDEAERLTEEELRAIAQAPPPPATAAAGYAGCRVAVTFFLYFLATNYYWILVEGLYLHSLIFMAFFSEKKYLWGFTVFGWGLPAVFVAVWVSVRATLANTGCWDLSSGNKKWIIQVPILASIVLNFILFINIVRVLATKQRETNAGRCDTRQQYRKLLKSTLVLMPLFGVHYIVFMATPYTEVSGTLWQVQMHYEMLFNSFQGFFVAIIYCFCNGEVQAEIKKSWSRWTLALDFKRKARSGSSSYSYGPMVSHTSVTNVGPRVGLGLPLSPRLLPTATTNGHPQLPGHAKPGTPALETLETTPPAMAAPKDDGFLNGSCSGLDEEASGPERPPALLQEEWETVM
As to the kind of experiment: cAMP accumulation, COS-7 cells expressing human kidney receptor. It counts as cell-based. The conditions noted are these: COS-7 cells expressing human receptor, FIG. 18. As to the method:
Intracellular cAMP accumulation was measured as described previously (Abou-Samra et al., J. Biol. Chem. 262:1129, 1986). Cells in 24-well plates were rinsed with culture medium containing 0.1% BSA and 2 mM IBMX. […] The supernatant was removed and the cells immediately frozen by placing the whole plate in dry ice powder. Intracellular cAMP was extracted by thawing the cells in 1 ml of 50 mM HCl and analyzed by a specific radioimmunoassay using an anti-cAMP antibody (e.g., Sigma, St. Louis, Mo.). A cAMP analog (2′-O-monosuccinyl-adenosine 3′:5′-cyclic monophosphate tyrosyl methyl ester, obtained from Sigma) which was used a tracer for cAMP was iodinated by the chloramine T method. Free iodine was removed by adsorbing the iodinated cAMP analog onto a C18 Sep-pak cartridge (Waters, Milford, Mass.). After washing with dH2O, the iodinated cAMP analog was eluted from the Sep-pak Cartridge with 40% acetonitrille (ACN) and 0.1% trifluoroacetic acid (TFA). The iodinated cAMP analog was lyophilized, reconstituted in 1 ml 0.1% TFA, and injected into a C18 reverse phase HPLC column (Waters). The column was equilibrated with 10% ACN in 0.1% TFA, and eluted with gradient of 10-30% ACN in 0.1% TFA. This allows separation of the mono-iodinated cAMP analog from the non-iodinated cAMP analog. […] The standard used for the assay, adenosine 3′:5′-cyclic monophosphate, was purchased from Sigma. […]

The target of assay [2] is T2, opossum kidney PTH/PTHrp receptor clone, OK-O (Didelphis virginiana, UniProt P25107, I132F/S86P).
T2 construct: expressed in transfected cells; host or cells: COS cells, transient, plasmid OK-O (pcDNA I)
The experiment in a line: Inositol phosphate metabolism, COS cells expressing OK-O. The following applies: FIG. 15, listed as NlePTH. The class given is cell-based.

In assay [3] the target is T3, opossum kidney PTH/PTHrP receptor clone, OK-H (Didelphis virginiana, UniProt P25107, I132F/S86P).
T3 construct: expressed in transfected cells; host or cells: COS cells, transient, plasmid OK-H (pcDNA I)
The experiment in a line: Inositol phosphate metabolism, COS cells expressing OK-H. It counts as cell-based. The following applies: FIG. 15, listed as NlePTH.

Assay [4] has as its target T1, human kidney PTH/PTHrP receptor. As to the kind of experiment: Radioreceptor assay, COS-7 cells transiently expressing human kidney PTH/PTHrP receptor (HKrk). The class given is binding. The protocol: (§1) In brief, the labeled peptide was dissolved in 0.1% trifluoracetic acid (TFA), applied to a C18 Sep-pak cartridge (Waters Associates, Inc., Milford, Mass.) and eluted with a solution of 60% acetonitrile in 0.1% TFA. After lyophilization, the radioligand then was applied to C18-μBondapak column (3.9 mm×30 cm. Waters Associates) and eluted over 30 min with a linear gradient of 30-50% acetonitrile-0.1% TFA at a flow rate of 2 ml/min.
(§2) COS-7 cells were grown in 15 cm plates in DMEM, 10% heat-inactivated […], 10 mg/L gentamycin until 80-90% confluent. Twenty-four hours after transfection by the DEAE/Dextran method (Sambrook et al., supra), with 1-2 μg of plasmid DNA, the cells were trypsinized and replated in multiwell plastic dishes (16 or 35 mm diameter, Costar, Cambridge, Mass.) at a cell concentration of 5×10^4 cells/cm^2). […] After continuing culture for another 48 h, radiorecepter assays were performed. The culture medium was replaced with buffer containing 50 mM Tris-HCL (pH 7.7), 100 mM NaCl, 2 mM CaCl2, 5 mM KCL, 0.5% heat-inactivated fetal bovine serum (GIBCO), and 5% heat-inactivated horse serum (KC Biological Inc., Lenexa, Kans.) immediately before studies were initiated.
(§3) Incubations were terminated by aspirating the buffer, and repeatedly (×3) washing the culture dishes, containing the adherent cells with chilled 0.9% NaCl solution, over a 15 sec period. Cell-bound radioactivity was recovered by the sequential addition (×3) of 1 N NaOH (200 μl) to each well. After 30 min at room temperature, the NaOH was transferred to a glass tube. A second and third extraction with 1 N NaOH (200 μl) were combined with the first, and the total radioactivity was counted in a γ-spectrometer (Packard Instruments, Downers Grove, Ill.).

For assay [5], the target named is T3, opossum kidney PTH/PTHrP receptor clone, OK-H. The experiment in a line: Radioreceptor assay, COS cells expressing OK-H. The conditions noted are these: FIG. 9. It counts as binding. The protocol:
as §1, §2, §3

Entries after “also recorded” stand apart in the source; their conditions may differ.

T3 sequence (P25107 other isoform, or with tags, fused parts or gaps S86P/I132F): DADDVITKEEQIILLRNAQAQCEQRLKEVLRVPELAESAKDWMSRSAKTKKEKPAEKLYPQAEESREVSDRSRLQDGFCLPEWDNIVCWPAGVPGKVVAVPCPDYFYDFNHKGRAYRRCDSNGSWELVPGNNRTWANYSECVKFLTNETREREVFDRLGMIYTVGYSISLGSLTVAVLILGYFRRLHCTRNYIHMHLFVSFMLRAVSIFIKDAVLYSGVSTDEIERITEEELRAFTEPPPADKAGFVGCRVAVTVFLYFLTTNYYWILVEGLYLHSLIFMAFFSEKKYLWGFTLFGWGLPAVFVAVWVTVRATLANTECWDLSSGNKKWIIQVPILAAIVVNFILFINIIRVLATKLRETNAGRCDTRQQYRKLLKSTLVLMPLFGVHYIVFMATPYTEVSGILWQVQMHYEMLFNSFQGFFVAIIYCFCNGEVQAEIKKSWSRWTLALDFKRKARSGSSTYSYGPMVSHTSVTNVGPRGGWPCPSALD
T2 sequence (P25107 27-585 S86P/I132F): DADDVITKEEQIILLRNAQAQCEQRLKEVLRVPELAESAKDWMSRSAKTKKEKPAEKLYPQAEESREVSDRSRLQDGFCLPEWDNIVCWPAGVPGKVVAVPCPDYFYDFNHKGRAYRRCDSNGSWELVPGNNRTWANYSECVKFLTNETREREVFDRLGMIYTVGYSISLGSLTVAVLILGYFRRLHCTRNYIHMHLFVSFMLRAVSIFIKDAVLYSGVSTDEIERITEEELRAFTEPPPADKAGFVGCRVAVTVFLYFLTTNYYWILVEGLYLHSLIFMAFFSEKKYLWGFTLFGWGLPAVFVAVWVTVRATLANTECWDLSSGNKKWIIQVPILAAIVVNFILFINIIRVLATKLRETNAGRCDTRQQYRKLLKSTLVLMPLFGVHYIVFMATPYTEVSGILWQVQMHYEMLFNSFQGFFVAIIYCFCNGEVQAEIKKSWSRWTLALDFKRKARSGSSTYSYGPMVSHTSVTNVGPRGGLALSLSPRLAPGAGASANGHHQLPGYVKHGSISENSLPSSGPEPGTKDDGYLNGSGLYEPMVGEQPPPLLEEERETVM

Turning to [Nle^8,18, Tyr^34]bPTH(1-34)amide, the “cAMP accumulation, PTH(1-34) compared with PTHrP(1-36)” value in assay [1] is “to the same extent”. The “inositol phosphate metabolism (IP3 and IP2 accumulation)” value is reported as “rapid increase” in assay [2] and “do not show a detectable increase; also recorded: did not show any detectable increase” in assay [3]. The “fold higher apparent Kd, human versus rat bone PTH/PTHrP receptor” value in assay [4] (human versus rat receptor) is given as 2 fold. Also, in assay [4] (radiolabelled ligand ~200,000 cpm, COS-7 cells transfected with cloned human PTH/PTHrP receptor), the “specific binding of radiolabelled ligand” value was determined as 10.1±3.7%. In addition, the “inhibition of 125I-PTHrP binding by competitor” value in assay [5] is recorded as “inhibited”.

The record behind these values is US7150974B1, “Parathyroid hormone receptor binding method” (The General Hospital Corporation, priority 1991, dated 2006).
